The subject of this test is KMS34 high-risk MM cell line. The experiment in a line: WST-1 cell proliferation inhibition (Example 8), KMS34. The format is cell-based. The note with it: Homo sapiens, KMS-34, WST-1, 48 hours, read-out: IC50, cell proliferation inhibitory activity, KMS34. Here is the method: Similar to Example 7, high-risk MM cell lines were treated with drugs, TC11 and PEG5(E)-TC11 at arbitrary concentrations. […] Specifically, each high-risk MM cell line was prepared at 5×10^5 cells/ml, and then seeded at 50 μl per well (2.5×10^4 cells). Drugs such as TC11, and PEG5(E)-TC11 were added to wells at arbitrary concentrations. WST-1 reagent was added at 48 hours after addition of drugs. After 1 hour of reaction at 37° C. in a CO2 incubator, absorbance was measured at a wavelength of 450 nm using a microplate reader. Cell viability was found from an absorbance ratio using absorbance at 0 μM designated as 100%. IC50 was calculated from a semi-logarithmic chart using Microsoft (registered trademark) Excel.
A general note: Tetrazolium assays rely on reduction of a dye to a coloured formazan, in cell work by metabolically active cells.

This passage reports IC50 results from US20190315775A1, “MODIFIED […] AND PHARMACEUTICAL COMPOSITION HAVING SAME AS ACTIVE INGREDIENT” (KEIO UNIVERSITY, priority 2016, published 2019).

Molecules are shown by their SMILES.

Take `CC(C)c1cccc(C(C)C)c1N1C(=O)c2ccc(N)cc2C1=O` [TC11, 2-(2,6-di-isopropylphenyl)-5-amino-1H-isoindole-1,3-dione, reference compound]: the IC50 was 6.5 µM.
